In ChEMBL document CHEMBL4680295, “Structure guided development of potent piperazine-derived hydroxamic acid inhibitors targeting falcilysin” (Bioorg Med Chem Lett, 2021):
pEC50, pKi: −log10 of the molar value.

Key:
Falcilysin = molecular target: T1, Falcilysin (Plasmodium falciparum (isolate 3D7), UniProt Q76NL8); test: Inhibition of Plasmodium falciparum FLN
T1 sequence (Q76NL8 whole entry): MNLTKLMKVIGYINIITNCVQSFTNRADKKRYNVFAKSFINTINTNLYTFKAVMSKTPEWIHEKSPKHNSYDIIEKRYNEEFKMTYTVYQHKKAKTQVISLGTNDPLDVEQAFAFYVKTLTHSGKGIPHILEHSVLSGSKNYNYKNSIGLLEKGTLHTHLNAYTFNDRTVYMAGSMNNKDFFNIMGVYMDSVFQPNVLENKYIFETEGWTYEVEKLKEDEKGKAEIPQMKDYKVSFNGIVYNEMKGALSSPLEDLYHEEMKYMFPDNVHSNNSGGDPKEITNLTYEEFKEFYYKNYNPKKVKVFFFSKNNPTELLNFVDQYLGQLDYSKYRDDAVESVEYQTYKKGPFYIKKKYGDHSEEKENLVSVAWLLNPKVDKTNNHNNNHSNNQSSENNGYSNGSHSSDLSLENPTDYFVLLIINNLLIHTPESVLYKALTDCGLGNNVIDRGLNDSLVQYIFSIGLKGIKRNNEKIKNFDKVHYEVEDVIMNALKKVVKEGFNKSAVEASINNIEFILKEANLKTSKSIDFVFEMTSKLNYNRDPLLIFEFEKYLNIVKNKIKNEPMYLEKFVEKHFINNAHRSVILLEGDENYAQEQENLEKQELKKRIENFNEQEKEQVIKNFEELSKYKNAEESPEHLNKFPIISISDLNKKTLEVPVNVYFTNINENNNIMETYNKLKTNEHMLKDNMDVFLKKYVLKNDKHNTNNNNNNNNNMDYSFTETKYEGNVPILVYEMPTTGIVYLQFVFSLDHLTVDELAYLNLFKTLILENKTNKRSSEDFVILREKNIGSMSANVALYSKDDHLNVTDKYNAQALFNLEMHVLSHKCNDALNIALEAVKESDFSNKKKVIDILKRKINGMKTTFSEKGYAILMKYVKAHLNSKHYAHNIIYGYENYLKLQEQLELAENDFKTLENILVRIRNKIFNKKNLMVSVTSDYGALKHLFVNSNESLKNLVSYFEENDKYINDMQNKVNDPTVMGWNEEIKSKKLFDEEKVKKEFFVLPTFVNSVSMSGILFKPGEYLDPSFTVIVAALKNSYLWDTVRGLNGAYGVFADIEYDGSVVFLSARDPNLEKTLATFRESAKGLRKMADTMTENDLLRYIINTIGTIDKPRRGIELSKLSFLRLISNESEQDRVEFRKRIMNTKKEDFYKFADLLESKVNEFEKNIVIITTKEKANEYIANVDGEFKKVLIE

Plasmodium falciparum = test: Parasiticidal activity against Plasmodium falciparum 3D7; format: functional, organism-based

Structure (SMILES) | pKi (Falcilysin) | pEC50 (Plasmodium falciparum)
O=C(NO)C1CN(S(=O)(=O)c2ccc(Cc3ccccc3)cc2)CCN1S(=O)(=O)c1ccc(Br)cc1 (centres undefined) | < 4.60 | < 4.60
CNC(=O)C1CN(S(=O)(=O)c2ccc(-c3ccccc3)cc2)CCN1S(=O)(=O)c1cccc(CCc2ccccc2)c1 (centres undefined) | 5.60 | 5.68
O=C(NO)C1CN(Cc2ccc(-c3ccccc3)cc2)CCN1S(=O)(=O)c1ccc(I)cc1 (centres undefined) | 5.31 | 5.30
O=C(NO)C1CN(S(=O)(=O)c2ccc(/C=C/c3ccccc3)cc2)CCN1S(=O)(=O)c1ccc(-c2ccccc2)cc1 (centres undefined) | 5.96 | 4.80
O=C(NO)C1CN(C(=O)c2ccc(-c3ccccc3)cc2)CCN1S(=O)(=O)c1ccc(-c2ccsc2)cc1 (centres undefined) | 4.96 | 5.22
C#Cc1ccc(S(=O)(=O)N2CCN(C(=O)c3ccc(C(=O)c4ccccc4)cc3)CC2C(=O)NO)cc1 (centres undefined) | < 4.60 | 5.22
O=C(NO)C1CN(C(=O)c2ccc3ccccc3c2)CCN1S(=O)(=O)c1ccc(Br)cc1 (centres undefined) | 5.46 | 5.15
O=C(NO)C1CN(S(=O)(=O)c2ccc(-c3ccccc3)cc2)CCN1S(=O)(=O)c1cccc(Br)c1 (centres undefined) | 5.85 | 5.80
O=C(NO)C1CN(C(=O)c2ccc(-c3ccccc3)cc2)CCN1S(=O)(=O)c1ccc(-c2ccccc2)cc1 (centres undefined) | 5.00 | < 4.60
O=C(NO)C1CN(S(=O)(=O)c2ccc(-c3ccccc3)cc2)CCN1S(=O)(=O)c1ccc(-c2ccccc2)cc1 (centres undefined) | 6.66 | 5.15
O=C(NO)C1CN(Cc2ccc(-c3ccccc3)cc2)CCN1S(=O)(=O)c1ccc(Br)cc1 (centres undefined) | 5.30 | 5.00
COC(=O)C1CN(Cc2ccc(-c3ccccc3)cc2)CCN1S(=O)(=O)c1ccc(Br)cc1 (centres undefined) | 5.40 | 5.85
O=C(NO)C1CN(C(=O)c2ccc(-c3ccccc3)cc2)CCN1S(=O)(=O)c1ccc(I)cc1 (centres undefined) | 5.40 | 5.52
COC(=O)C1CN(S(=O)(=O)c2ccc(-c3ccccc3)cc2)CCN1S(=O)(=O)c1ccc(/C=C/c2ccccc2)cc1 (centres undefined) | 6.22 | 6.10
C#Cc1ccc(S(=O)(=O)N2CCNCC2C(=O)NO)cc1 (centres undefined) | < 4.60 | < 4.60
C#Cc1ccc(S(=O)(=O)N2CCN(C(=O)c3ccc(I)cc3)CC2C(=O)NO)cc1 (centres undefined) | < 4.60 | < 4.60
CNC(=O)C1CN(S(=O)(=O)c2ccc(I)cc2)CCN1S(=O)(=O)c1ccc(-c2ccccc2)cc1 (centres undefined) | 5.59 | 5.05
CNC(=O)C1CN(S(=O)(=O)c2ccc(-c3ccccc3)cc2)CCN1S(=O)(=O)c1cccc(/C=C/c2ccccc2)c1 (centres undefined) | 6.00 | 5.30
COC(=O)C1CN(S(=O)(=O)c2ccc(-c3ccccc3)cc2)CCN1S(=O)(=O)c1ccc(-c2ccccc2)cc1 (centres undefined) | 5.60 | 5.68
O=C(NO)C1CN(C(=O)c2ccc(-c3ccccc3)cc2)CCN1S(=O)(=O)c1ccc(Br)cc1 (centres undefined) | 5.52 | 5.59
O=C(NO)C1CN(C(=O)c2ccc(I)cc2)CCN1S(=O)(=O)c1ccc(Br)cc1 (centres undefined) | < 4.60 | < 4.60
CNC(=O)C1CN(S(=O)(=O)c2ccc(-c3ccccc3)cc2)CCN1S(=O)(=O)c1cccc(-c2ccc(C(=O)c3ccccc3)cc2)c1 (centres undefined) | 5.77 | 6.05
CNC(=O)C1CN(S(=O)(=O)c2cccc(Br)c2)CCN1S(=O)(=O)c1ccc(-c2ccccc2)cc1 (centres undefined) | 5.85 | 5.33
O=C(NO)C1CN(S(=O)(=O)c2ccc(-c3ccccc3)cc2)CCN1S(=O)(=O)c1cccc(-c2ccccc2)c1 (centres undefined) | 6.05 | 5.15
CNC(=O)C1CN(S(=O)(=O)c2ccc(-c3ccccc3)cc2)CCN1S(=O)(=O)c1cccc(-c2cccnc2OC)c1 (centres undefined) | 5.40 | 5.22
O=C(NO)C1CN(C(=O)c2cccc3ccccc23)CCN1S(=O)(=O)c1ccc(Br)cc1 (centres undefined) | 5.05 | 5.40
CNC(=O)C1CN(S(=O)(=O)c2ccc(-c3cccnc3OC)cc2)CCN1S(=O)(=O)c1ccc(-c2ccccc2)cc1 (centres undefined) | 5.40 | 5.85
